# Where two headings read alike, the source gives them in different places.
# Tests used:
# E. coli AG100 = experiment: Broth microdilution MIC assay; assay type: cell-based; conditions: Escherichia coli, CA-MHB, 35° C., 20 hours
# Description: (§1) The antibacterial activity of FabI inhibitors against select Gram-negative and Gram-positive bacterial species including susceptible and multi-drug resistant A. baumannii, E. coli, K. pneumoniae and S. aureus was tested using the broth microdilution Minimal Inhibitory Concentration (MIC) assay following CLSI guidelines for insoluble compounds. Test articles were serially diluted 2-fold in 100% dimethyl sulfoxide (DMSO) and then diluted 100-fold into cation adjusted Mueller-Hinton broth (CA-MHB) to achieve a 10-point test concentration range in 1% DMSO. Final compound concentrations were 0.016-8 μg/ml for S. aureus or 0.06-32 μg/ml for the Gram-negative species. MIC test plates were then prepared by transferring 100 μl of the final assay medium (test article in CA-MHB, 1% DMSO) into the appropriate wells of a sterile, low binding 96-well polystyrene plate. Direct colony suspension inoculums of the test strains were freshly prepared per CLSI guidelines, and the appropriate test wells were inoculated to achieve a final bacterial cell density of 5×10^5 CFU/ml. Growth control (no test article) and negative control (no bacterial inoculum) wells were also included. Exposure to light was minimized during all stages of assay preparation. […] Bacterial growth was then determined by measuring the optical density at 600 nm (OD600) using a SpectraMax Plus plate-reader spectrophotometer.
# K. pneumoniae A6030827 = experiment: Broth microdilution MIC assay; assay type: cell-based; conditions: Klebsiella pneumoniae, CA-MHB, 35° C., 20 hours
# Description: as §1
# S. aureus ATCC 29213 = experiment: Broth microdilution MIC assay; assay type: cell-based; conditions: Staphylococcus aureus, ATCC29213; CA-MHB, 35° C., 20 hours
# Description: as §1
# [1] = tested on: A. baumannii ATCC BAA1605; experiment: Broth microdilution MIC assay; assay type: cell-based; conditions: Acinetobacter baumannii, ATCCBAA1605; CA-MHB, 35° C., 20 hours
# Description: as §1
# [2] = tested on: Acinetobacter baumannii ATCC 17978; experiment: Mouse thigh infection model; assay type: in vivo, BALB/c mice; conditions: 3 mg/kg q12h SC
# Description: (§2) Groups of 5 female specific-pathogen-free BALB/c mice weighing 18±2 g were used. In the 24 hr model (bacterial counts determined 24 hr after treatment start), mice were rendered neutropenic with cyclophosphamide intraperitoneal (IP) administration conducted at Days −4 (150 mg/kg), and day −1 (100 mg/kg). In the 72 hr model (bacterial counts determined 72 hr after treatment start), animals were rendered persistently neutropenic for the duration of the infection period with cyclophosphamide intraperitoneal (IP) administration conducted at Days −4 (150 mg/kg), −1 (100 mg/kg) and +1 (100 mg/kg). Persistent neutropenia is required to prevent pathogen clearance from thigh tissue in the 74 hr model. Nutritional supplementation (diet gel) plus saline SC injections were provided daily to help animals tolerate the cyclophosphamide treatment.
# On day 0, animals were inoculated intramuscularly (0.1 ml/thigh) with a 1.67×10^4 inoculum count of Acinetobacter baumannii ATCC 17978. Vehicle control (40% Captisol), positive control (tigecycline) or test substances were then administered 2 hr post infection by the subcutaneous (SC) route of administration. Each dosing group consisted of 5 female mice. The MICs of the compounds against the test strain were 8 μg/ml, 2 μg/ml and […] for compound 201, compound 71 and compound 200, respectively. At 26 or 74 hours after inoculation (24 or 72 hr after treatment initiation), animals were euthanized with CO2 asphyxiation and the thigh tissue harvested from each of the test animals. The tissues were homogenized in 3 mL of PBS, pH 7.4 with a homogenizer. Homogenates, 0.1 mL, were used for serial 10-fold dilutions and plated onto NB agar for colony counts. Efficacy is calculated as the change in log CFU/g thigh vs. the time 0 (treatment initiation) control.
# A. baumannil ATCC 17978 = experiment: Mouse lung infection model; assay type: in vivo, BALB/c mice; conditions: 3 mg/kg q12h SC
# Description: as §2, with “lung” for “thigh”
# On day 0, animals were anesthetized with etomidate-lipuro emulsion (20 mg/10 mL; 20 mg/kg dose, IV) and then inoculated intranasally with an A. baumannil ATCC 17978 suspension, 1.36×10^5 CFU/mouse, 0.02 mL/mouse. Vehicle control (40% Captisol), positive control (tigecycline) or test substances were then administered 2 hr post infection by the subcutaneous (SC) route of administration. Each dosing group consisted of 5 female mice. The MICs of the compounds against the test strain were 8 μg/ml and 0.5 μg/ml for compound 201 and compound 200, respectively. At 26 or 74 hours after inoculation (24 or 72 hr after treatment initiation), animals were euthanized with CO2 asphyxiation and the lung tissue harvested from each of the test animals. The tissues were homogenized in 1 ml of PBS, pH 7.4 with a homogenizer. Homogenates, 0.1 mL, were used for serial 10-fold dilutions and plated onto MacConkey II agar for colony counts. Efficacy is calculated as the change in log CFU/g […] vs. the time 0 (treatment initiation) control.
# [3] = biological target: FabI enzyme from Acinetobacter baumannii (Acinetobacter baumannii, UniProt D0CAD5); experiment: Inhibition of FabI enzyme, rate of NADH consumption; assay type: biochemical
# FabI enzyme from Acinetobacter baumannii, sequence (D0CAD5 entry or part of it): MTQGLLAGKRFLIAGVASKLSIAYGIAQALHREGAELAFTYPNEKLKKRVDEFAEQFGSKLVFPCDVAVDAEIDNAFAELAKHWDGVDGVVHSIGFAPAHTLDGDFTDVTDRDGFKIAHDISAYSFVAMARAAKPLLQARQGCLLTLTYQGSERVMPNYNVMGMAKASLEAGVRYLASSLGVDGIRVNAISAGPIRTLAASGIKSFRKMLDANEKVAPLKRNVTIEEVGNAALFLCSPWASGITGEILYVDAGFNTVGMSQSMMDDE
# Description: Inhibition of FabI enzyme from Acinetobacter baumannii and Escherichia coli was tested by measuring the rate of NADH consumption (Δabsorbance at 340 nm/min) at 30° C. in 96-well plate format using an automated plate reader in the presence or absence of the test compounds. The assay mixture contained 100 mM Tris-HCl, pH 7.25 (A. baumannii) or 7.5 (E. coli), 100 mM ammonium acetate, 0.02% (A. baumannii) or 0.05% (E. coli) Pluronic F-68, 25 μM crotonyl ACP, 50 μM NADH, 25 pM (A. baumannii) or 50 pM (E. coli) recombinant FabI protein, and 7.5% DMSO. Test compounds were added at concentrations ranging from 0.17 to 10,000 nM in a final well volume of 100 μl. This dose-response inhibitory assay was performed using a 10-point, serial dilution series for each test compound. IC50 values for each test compound were assigned from logistical sigmoid curve-fitting of the inhibition dose response curves.
# [4] = total daily dose 6 mg/kg, 24 hr treatment
# [5] = total daily dose 6 mg/kg, 72 hr treatment
# [6] = recombinant FabI, 30° C., pH 7.25, read-out: A. baumannii Fabl IC50
SMILES,MIC (E. coli AG100),MIC (K. pneumoniae A6030827),MIC (S. aureus ATCC 29213),MIC [1],IC50 [3],also measured
"Cc1c(CN(C)C(=O)/C=C/c2cnc3c(c2)CC[C@H](N)C(=O)N3)oc2cccc(F)c12.Cl (single isomer, unassigned) [Compound 130]",≤ 4 µg/mL,≤ 4 µg/mL,≤ 4 µg/mL,≤ 4 µg/mL,–,–
"Cc1c(CN(C)C(=O)/C=C/c2cnc3c(c2)CC[C@H](N)C(=O)N3)oc2c(Cl)cccc12.Cl (single isomer, unassigned) [Compound 98]",≤ 4 µg/mL,≤ 4 µg/mL,≤ 4 µg/mL,≤ 4 µg/mL,–,–
"CN(C)c1cc(NC(=O)CNC(C)(C)C)c(O)c2c1C[C@H]1C[C@H]3[C@H](N(C)C)C(O)=C(C(N)=O)C(=O)[C@@]3(O)C(O)=C1C2=O [Tigecycline, reference compound]",–,–,–,–,–,"Mean Change log CFU/g thigh 24 hr ([2]; 24 hr, vs. time 0 control): −2.48 log CFU/g thigh; Mean Change log CFU/g thigh 72 hr ([2]; 72 hr, vs. time 0 control): −3.48 log CFU/g thigh; Mean Log CFU/g thigh 24 hr [2, 4]: 2.37 log CFU/g thigh; Mean Log CFU/g thigh 72 hr [2, 5]: 1.36 log CFU/g thigh; Mean change log CFU/g lung 24 hr (A. baumannil ATCC 17978; 24 hr, vs. time 0 control): −3.44 log CFU/g lung; Mean change log CFU/g lung 72 hr (A. baumannil ATCC 17978; 72 hr, vs. time 0 control): −4.74 log CFU/g lung; Mean Log CFU/g lung 24 hr (A. baumannil ATCC 17978; [4]): 2.87 log CFU/g lung; Mean Log CFU/g lung 72 hr (A. baumannil ATCC 17978; [5]): 1.57 log CFU/g lung"
"Cc1c(CN(C)C(=O)/C=C/c2cnc3c(c2)N[C@H](C)[C@H](N)C(=O)N3)oc2ccccc12 [Compound 52, (E)-3-((2R,3S)-3-amino-2-methyl-4-oxo-2,3,4,5-tetrahydro-1H-pyrido[2,3-b][1,4]diazepin-8-yl)-N-methyl-N-((3-methylbenzofuran-2-yl)methyl)acrylamide]",≤ 4 µg/mL,–,≤ 4 µg/mL,≤ 4 µg/mL,–,"IC50 [3, 6]: < 10 nM"
"Cc1c(CN(C)C(=O)/C=C/c2cnc3c(c2)CC[C@H](N)C(=O)N3)sc2c(F)cccc12.Cl (single isomer, unassigned) [Compound 140]",≤ 4 µg/mL,≤ 4 µg/mL,≤ 4 µg/mL,≤ 4 µg/mL,–,–
"Cc1oc2c(N)cccc2c1CN(C)C(=O)/C=C/c1cnc2c(c1)N[C@H](C)[C@H](N)C(=O)N2 [Compound 62, (E)-3-((2R,3S)-3-amino-2-methyl-4-oxo-2,3,4,5-tetrahydro-1H-pyrido[2,3-b][1,4]diazepin-8-yl)-N-((7-amino-2-methylbenzofuran-3-yl)methyl)-N-methylacrylamide]",≤ 4 µg/mL,–,≤ 4 µg/mL,≤ 4 µg/mL,–,"IC50 [3, 6]: < 10 nM"
"Cc1c(CN(C)C(=O)/C=C/c2cnc3c(c2)CC[C@H](N)C(=O)N3)sc2ccccc12.Cl (single isomer, unassigned) [Compound 119]",≤ 4 µg/mL,≤ 4 µg/mL,≤ 4 µg/mL,≤ 4 µg/mL,–,–
"Cc1c(CN(C)C(=O)/C=C/c2cnc3c(c2)CC[C@H](N)C(=O)N3)oc2ccc(Oc3cccnc3)cc12.Cl (single isomer, unassigned) [Compound 151]",≤ 4 µg/mL,≤ 4 µg/mL,≤ 4 µg/mL,–,–,–
"CC(=O)NC1CNc2cc(/C=C/C(=O)N(C)Cc3oc4ccccc4c3C)cnc2NC1=O (stereo not shown) [Compound 42, (E)-3-(3-acetamido-4-oxo-2,3,4,5-tetrahydro-1H-pyrido[2,3-b][1,4]diazepin-8-yl)-N-methyl-N-((3-methylbenzofuran-2-yl)methyl)acrylamide]",–,–,≤ 4 µg/mL,≤ 4 µg/mL,–,–
"Cc1c(CN(C)C(=O)/C=C/c2cnc3c(c2)CC[C@H](N)C(=O)N3)sc2c(F)cccc12.Cl (single isomer, unassigned) [Compound 140, hydrochloride]",–,–,–,–,< 10 nM,–
"Cc1c(CN(C)C(=O)/C=C/c2cnc3c(c2)CC[C@H](N)C(=O)N3)oc2c(F)cccc12.Cl (single isomer, unassigned) [Compound 107]",≤ 4 µg/mL,≤ 4 µg/mL,≤ 4 µg/mL,≤ 4 µg/mL,–,–
"Cc1c(CN(C)C(=O)/C=C/c2cnc3c(c2)CCC(N2CCN(S(C)(=O)=O)CC2)C(=O)N3)oc2ccccc12 (stereo not shown) [Compound 187, (E)-N-methyl-N-((3-methylbenzofuran-2-yl)methyl)-3-(7-(4-(methylsulfonyl)piperazin-1-yl)-8-oxo-6,7,8,9-tetrahydro-5H-pyrido[2,3-b]azepin-3-yl)acrylamide]",16 µg/mL,–,≤ 4 µg/mL,≤ 4 µg/mL,–,"IC50 [3, 6]: < 10 nM"
"Cc1c(CN(C)C(=O)/C=C/c2cnc3c(c2)CC[C@H](N)C(=O)N3)oc2cccc(F)c12.Cl (single isomer, unassigned) [Compound 130, hydrochloride]",–,–,–,–,< 10 nM,–
"Cc1c(CN(C)C(=O)/C=C/c2cnc3c(c2)CC[C@H](N)C(=O)N3)oc2c(F)cccc12.Cl (single isomer, unassigned) [Compound 107, hydrochloride]",–,–,–,–,< 10 nM,–
"Cc1c(CN(C)C(=O)/C=C/c2cnc3c(c2)CC[C@H](N)C(=O)N3)oc2cccc(CNc3cccnc3)c12.Cl.Cl (single isomer, unassigned) [Compound 167, dihydrochloride]",–,–,–,–,< 10 nM,–
"Cc1c(CN(C)C(=O)/C=C/c2cnc3c(c2)CC[C@H](N)C(=O)N3)oc2ccc(Oc3cccnc3)cc12.Cl (single isomer, unassigned) [Compound 151, hydrochloride]",–,–,–,–,< 10 nM,–
"Cc1c(CN(C)C(=O)/C=C/c2cnc3c(c2)CC[C@H](N)C(=O)N3)oc2cccc(CNc3cccnc3)c12.Cl.Cl (single isomer, unassigned) [Compound 167]",≤ 4 µg/mL,≤ 4 µg/mL,≤ 4 µg/mL,≤ 4 µg/mL,–,–
"Cc1c(CN(C)C(=O)/C=C/c2cnc3c(c2)CC[C@H](N)C(=O)N3)oc2c(Cl)cccc12.Cl (single isomer, unassigned) [Compound 98, hydrochloride]",–,–,–,–,< 10 nM,–

# — patent publication US12473283B2, “Compounds and their use” (Debiopharm International S.A., priority 2019, dated 2025)
